Measurements taken from ChEMBL document CHEMBL1131886 (Bioorg Med Chem Lett, 1999).

What was measured:
[1] = molecular target: T1, 5-hydroxytryptamine receptor 1A (Homo sapiens, UniProt P08908); experiment: Stimulation of [35S]- GIPyS binding to cloned human 5-hydroxytryptamine 1A receptor stably expressed in HeLa cells; format: cell-based
T1 sequence (P08908 whole entry): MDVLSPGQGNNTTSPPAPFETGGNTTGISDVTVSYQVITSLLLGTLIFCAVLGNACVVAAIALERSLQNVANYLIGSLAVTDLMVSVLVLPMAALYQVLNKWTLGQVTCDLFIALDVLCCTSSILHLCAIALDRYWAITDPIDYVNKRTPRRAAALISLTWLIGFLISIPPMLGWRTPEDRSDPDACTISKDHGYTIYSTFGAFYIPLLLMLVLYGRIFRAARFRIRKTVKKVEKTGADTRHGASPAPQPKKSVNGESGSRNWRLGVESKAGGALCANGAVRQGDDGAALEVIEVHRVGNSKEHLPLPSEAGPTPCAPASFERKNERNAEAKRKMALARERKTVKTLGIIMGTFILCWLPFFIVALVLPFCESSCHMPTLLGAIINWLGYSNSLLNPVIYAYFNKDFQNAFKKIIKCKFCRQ

[2] = molecular target: T1, 5-hydroxytryptamine receptor 1A; experiment: Displacement of specific [3H]- 5-HT binding to cloned human 5-hydroxytryptamine 1A receptor stably expressed in HeLa cells; format: cell-based
[3] = molecular target: Sodium-dependent serotonin transporter (Rattus norvegicus, UniProt P31652); experiment: Displacement of specific [3H]- citalopram binding to 5-HT uptake site in rat whole cortex
[4] = molecular target: T2, 5-hydroxytryptamine receptor 1A (Homo sapiens) (UniProt P08908); experiment: Percent efficacy against human 5-hydroxytryptamine 1A receptor relative to maximal 5-HT response; format: functional
T2 sequence (whole entry): T1 sequence (P08908 whole entry)

[5] = molecular target: T1, 5-hydroxytryptamine receptor 1A; experiment: Stimulation of [35S]- […] binding to cloned human 5-hydroxytryptamine 1A receptor stably expressed in HeLa cells; Inverse; format: cell-based
[6] = molecular target: T2, 5-hydroxytryptamine receptor 1A (Homo sapiens); experiment: Percent efficacy against cloned human 5-hydroxytryptamine 1A receptor normalized to the maximal 5-HT response; format: functional

Chain of Sodium-dependent serotonin transporter (P31652 whole entry): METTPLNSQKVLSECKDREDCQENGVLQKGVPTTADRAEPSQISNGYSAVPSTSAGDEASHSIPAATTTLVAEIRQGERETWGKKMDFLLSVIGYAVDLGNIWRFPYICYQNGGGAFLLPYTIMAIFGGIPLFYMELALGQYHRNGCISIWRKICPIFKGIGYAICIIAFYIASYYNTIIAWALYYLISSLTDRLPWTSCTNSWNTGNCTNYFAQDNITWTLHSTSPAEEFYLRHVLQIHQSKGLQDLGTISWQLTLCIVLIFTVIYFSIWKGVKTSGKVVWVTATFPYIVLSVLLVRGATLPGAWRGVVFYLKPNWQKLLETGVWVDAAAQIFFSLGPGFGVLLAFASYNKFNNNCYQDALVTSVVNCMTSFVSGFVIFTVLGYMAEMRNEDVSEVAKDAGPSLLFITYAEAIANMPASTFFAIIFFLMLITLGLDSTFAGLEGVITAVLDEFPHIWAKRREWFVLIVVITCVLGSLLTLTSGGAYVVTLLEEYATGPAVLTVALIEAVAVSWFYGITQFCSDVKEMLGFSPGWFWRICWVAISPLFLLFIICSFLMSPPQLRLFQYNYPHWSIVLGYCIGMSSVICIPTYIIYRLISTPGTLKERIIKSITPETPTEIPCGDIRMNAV

Structure (SMILES) | EC50 [1] [nM] | Ki [2] [nM] | Ki [3] [nM] | Efficacy [4] [%] | EC50 [5] | Efficacy [6] [%]
c1ccc(CCCCN2CCC3(CC2)OCc2c3ccc3ccccc23)cc1 | > 10000 | 72 | 28 | – | – | –
O[C@H](COc1ccccc1)CN1CCC2(CC1)OCc1c2ccc2ccccc12 | 1.2 | 1.1 | 50 | 81 | – | –
OC(COc1cc(F)cc2c1OCCC2)CN1CCC2(CC1)OCc1c2ccc2ccccc12 (stereo not drawn) | – | 5.5 | 72 | – | Inverse agonist | –
OC(COCc1ccccc1)CN1CCC2(CC1)OCc1c2ccc2ccccc12 (stereo not drawn) | 31 | 2.2 | 83 | 108 | – | –
CCc1cccc(OC[C@@H](O)CN2CCC3(CC2)OCc2c3ccc3ccccc23)c1 | 3.3 | 1.7 | 87 | 61 | – | –
CC(C)NCC(O)COc1cccc2[nH]ccc12 (stereo not drawn) | – | – | – | 36 | – | –
OC(CCc1ccccc1)CN1CCC2(CC1)OCc1c2ccc2ccccc12 (stereo not drawn) | 37 | 8.3 | 10 | 87 | – | –
O=C1CCc2c(F)ccc(OCC(O)CN3CCC4(CC3)OCc3c4ccc4ccccc34)c21 (stereo not drawn) | 3.5 | 2.3 | 45 | – | – | 65
O[C@@H](COc1ccccc1F)CN1CCC2(CC1)OCc1c2ccc2ccccc12 | 21 | 6 | 120 | 92 | – | –
OC(COc1ccc(F)c2c1OCCC2)CN1CCC2(CC1)OCc1c2ccc2ccccc12 (stereo not drawn) | > 10000 | 2.8 | 49 | – | – | –
O[C@H](COc1ccccc1F)CN1CCC2(CC1)OCc1c2ccc2ccccc12 | 1.1 | 1 | 52 | 100 | – | –
